Experimental data: patent US4220755A, “Fortimicin B derivatives and process for production thereof” (Abbott Laboratories, priority 1976, dated 1980)
In brackets after ≈: the same amount, converted by molar mass.

Tests used:
[1] = test system: Staphylococcus aureus KY4279 ATCC6538P; assay: MIC, agar dilution method, pH 8.0; assay type: cell-based; settings: pH 8.0, Staphylococcus aureus KY4279, read-out: Minimum inhibition concentration (MIC), SA
Protocol: (§1) Measurement was carried out according to the agar dilution method, using a medium of pH 8.0, or the Japanese Antibiotic Medicament Standard, using a medium of pH 7.2 Units are in mcg/ml.
S.A.: Staphylococcus aureus KY4279 ATCC6538P

[2] = test system: Bacillus subtilis KY4273; assay: MIC, agar dilution method, pH 8.0; assay type: cell-based; settings: pH 8.0; Bacillus subtilis KY4273; read-out: Minimum inhibition concentration (MIC), BS
Protocol: as §1
B.S.: Bacillus subtilis KY4273

[3] = test system: Eschericia coli KY4271 ATCC26; assay: MIC, agar dilution method, pH 8.0; assay type: cell-based; settings: Escherichia coli, ATCC26; pH 8.0; E. coli KY4271; read-out: Minimum inhibition concentration (MIC), EC
Protocol: as §1
E.C.: Eschericia coli KY4271 ATCC26

[4] = test system: Salmonella typhosa KY4278 ATCC9992; assay: MIC, agar dilution method, pH 8.0; assay type: cell-based; settings: Salmonella enterica, pH 8, read-out: Minimum inhibition concentration (MIC), ST
Protocol: as §1
S.T.: Salmonella typhosa KY4278 ATCC9992

[5] = test system: Proteus vulgaris KY4277 ATCC6897; assay: MIC, agar dilution method, pH 8.0; assay type: cell-based; settings: ATCC6897; pH 8.0; Proteus vulgaris KY4277; read-out: Minimum inhibition concentration (MIC), PV
Protocol: as §1

[6] = test system: Shigella sonnei KY4281 ATCC9290; assay: MIC, agar dilution method, pH 8.0; assay type: cell-based; settings: ATCC9290; pH 8.0; Shigella sonnei KY4281; read-out: Minimum inhibition concentration (MIC), SS
Protocol: as §1

[7] = test system: Klebsiella pneumoniae KY4275 ATCC10031; assay: MIC, agar dilution method, pH 8.0; assay type: cell-based; settings: ATCC10031; pH 8.0; Klebsiella pneumoniae KY4275; read-out: Minimum inhibition concentration (MIC), KP
Protocol: as §1
K.P.: Klebsiella pneumoniae KY4275 ATCC10031.

[8] = test system: Escherichia coli 57R/W677; assay: MIC, agar dilution method, pH 7.2; assay type: cell-based; settings: 57R/W677, pH 7.2, read-out: Minimum inhibition concentration (MIC)
Protocol: as §1
(§2) **1: gentamicin, producing adenylsynthetase.

[9] = test system: Escherichia coli 76-2; assay: MIC, agar dilution method, pH 7.2; assay type: cell-based; settings: Escherichia coli, 762; pH 7.2; E. coli 76-2; 1**: gentamicin, producing adenylsynthetase; read-out: Minimum inhibition concentration (MIC)
Protocol: as §1, §2

[10] = test system: Escherichia coli R12 Z-338; assay: MIC, agar dilution method, pH 7.2; assay type: cell-based; settings: R12Z338, pH 7.2, E. coli R12 Z-338, 1**: gentamicin, producing adenylsynthetase, read-out: Minimum inhibition concentration (MIC)
Protocol: as §1, §2

[11] = test system: Klebsiella pneumoniae 3020 Y-60; assay: MIC, agar dilution method, pH 7.2; assay type: cell-based; settings: Klebsiella pneumoniae, 3020Y60, pH 7.2, read-out: Minimum inhibition concentration (MIC)
Protocol: as §1, §2

[12] = test system: Eschericihia coli 3100; assay: MIC, agar dilution method, pH 7.2; assay type: cell-based, Escherichia coli; settings: Escherichia coli, 3100, pH 7.2, read-out: Minimum inhibition concentration (MIC)
Protocol: as §1

[13] = test system: Escherichia coli R18 KY8321; assay: MIC, agar dilution method, pH 7.2; assay type: cell-based; settings: R18KY8321, E. coli R18 KY8321, 2**: gentamicin, producing adenylsynthetase and neomycin phosphotransferase type II, read-out: Minimum inhibition concentration (MIC)
Protocol: as §1
2: gentamicin, producing adenylsynthetase and neomycin phosphotransferase

[14] = test system: Escherichia coli R20 KY8349; assay: MIC, agar dilution method, pH 7.2; assay type: cell-based; settings: R20KY8349, pH 7.2, E. coli R20 KY8349, 5**: neomycin, producing phosphotransferase type I, read-out: Minimum inhibition concentration (MIC)
Protocol: as §1
5: neomycin, producing phosphotransferase type I.

[15] = test system: Pseudomonas aeruginosa BMH# 1; assay: MIC, agar dilution method, pH 7.2; assay type: cell-based; settings: Pseudomonas aeruginosa, pH 7.2, read-out: Minimum inhibition concentration (MIC)
Protocol: as §1

[16] = test system: Eschericihia coli GN2411-5; assay: MIC, agar dilution method, pH 7.2; assay type: cell-based; settings: Escherichia coli, GN2411, pH 7.2, read-out: Minimum inhibition concentration (MIC)
Protocol: as §1

[17] = test system: Salmonella enteritidis G-14; assay: MIC, agar dilution method, pH 7.2; assay type: cell-based; settings: Salmonella enterica, ENTERITIDIS, pH 7.2, read-out: Minimum inhibition concentration (MIC)
Protocol: as §1

[18] = test system: Proteus vulgaris JJ; assay: MIC, agar dilution method, pH 7.2; assay type: cell-based; settings: Proteus vulgaris, pH 7.2, read-out: Minimum inhibition concentration (MIC)
Protocol: as §1

[19] = test system: Pseudomonas aeruginosa UCLA 4184; assay: MIC, agar dilution method, pH 7.2; assay type: cell-based; settings: Pseudomonas aeruginosa, UCLA4184, pH 7.2, read-out: Minimum inhibition concentration (MIC)
Protocol: as §1

[20] = test system: Escherichia coli NIHTC-2; assay: MIC, agar dilution method, pH 7.2; assay type: cell-based; settings: Escherichia coli, NIHTC2, pH 7.2, read-out: Minimum inhibition concentration (MIC)
Protocol: as §1

[21] = test system: Staphylococcus aureus 209-P; assay: MIC, agar dilution method, pH 7.2; assay type: cell-based; settings: Staphylococcus aureus, 209P, pH 7.2, read-out: Minimum inhibition concentration (MIC)
Protocol: as §1

[22] = test system: Shigella sonnei ATCC9290; assay: MIC, agar dilution method, pH 7.2; assay type: cell-based; settings: read-out: Minimum inhibition concentration (MIC)
Protocol: as §1

[23] = test system: Klebsiella pneumoniae KY4274; assay: MIC, agar dilution method, pH 7.2; assay type: cell-based; settings: Klebsiella pneumoniae, KY4274, pH 7.2, read-out: Minimum inhibition concentration (MIC)
Protocol: as §1

[24] = test system: Staphylococcus aureus Smith (A); assay: MIC, agar dilution method, pH 7.2; assay type: cell-based; settings: Staphylococcus aureus, pH 7.2, read-out: Minimum inhibition concentration (MIC)
Protocol: as §1

[25] = test system: Providencia sp 164; assay: MIC, agar dilution method, pH 7.2; assay type: cell-based; settings: pH 7.2; Providencia sp 164; 7**: gentamicin, producing acetyltransferase type II; read-out: Minimum inhibition concentration (MIC)
Protocol: as §1
7: gentamicin, producing acetyltransferase type II.

[26] = test system: Pseudomonas aeruginosa R4 KY8511; assay: MIC, agar dilution method, pH 7.2; assay type: cell-based; settings: R4KY8511, pH 7.2, read-out: Minimum inhibition concentration (MIC)
Protocol: as §1
(§3) 4: gentamicin, producing acetyltransferase type I.

[27] = test system: Escherichia coli R19 KY8348; assay: MIC, agar dilution method, pH 7.2; assay type: cell-based; settings: R19KY8348, pH 7.2, read-out: Minimum inhibition concentration (MIC)
Protocol: as §1, §3

[28] = test system: Escherichia coli R17 Z343; assay: MIC, agar dilution method, pH 7.2; assay type: cell-based; settings: R17Z343, pH 7.2, E. coli R17 Z343, 3**: kanamycin, producing acetyltransferase, read-out: Minimum inhibition concentration (MIC)
Protocol: as §1
(§4) 3: kanamycin, producing acetyltransferase.

[29] = test system: Serratia marcescens 1065; assay: MIC, agar dilution method, pH 7.2; assay type: cell-based; settings: Serratia marcescens, 1065, pH 7.2, read-out: Minimum inhibition concentration (MIC)
Protocol: as §1, §4

[30] = test system: Pseudomonas aeruginosa R9 KY8516; assay: MIC, agar dilution method, pH 7.2; assay type: cell-based; settings: R9KY8516, pH 7.2, read-out: Minimum inhibition concentration (MIC)
Protocol: as §1, §4

[31] = test system: Pseudomonas aeruginosa R5 KY8512; assay: MIC, agar dilution method, pH 7.2; assay type: cell-based; settings: R5KY8512, pH 7.2, read-out: Minimum inhibition concentration (MIC)
Protocol: as §1
6: neomycin, producing phosphotransferase type I and type II.

[32] = test system: Staphylococcus a ureus 226; assay: MIC, agar dilution method, pH 7.2; assay type: cell-based, Staphylococcus aureus; settings: pH 7.2, read-out: Minimum inhibition concentration (MIC)
Protocol: as §1

SMILES: CNC[C@H](O)CN(C)[C@H]1[C@@H](O)[C@H](O[C@H]2O[C@H]([C@H](C)N)CC[C@H]2N)[C@@H](N)[C@H](O)[C@@H]1OC [Compound 32, 4-N-[(S)-3-methylamino-2-hydroxypropyl]fortimicin B]
- MIC [1]: 0.16 mg/L (≈ 0.367 µM)
- MIC [2]: 0.63 mg/L (≈ 1.45 µM)
- MIC [3]: 2.5 mg/L (≈ 5.74 µM)
- MIC [4]: 0.63 mg/L (≈ 1.45 µM)
- MIC [5]: 2.5 mg/L (≈ 5.74 µM)
- MIC [6]: 2.5 mg/L (≈ 5.74 µM)
- MIC [7]: 5 mg/L (≈ 11.5 µM)

SMILES: NC[C@H]1O[C@H](O[C@H]2[C@H](O)[C@@H](O[C@H]3O[C@H](CO)[C@@H](O)[C@H](N)[C@H]3O)[C@H](N)C[C@@H]2N)[C@H](O)[C@@H](O)[C@@H]1O [KA, kanamycin A, reference compound]
- MIC [8]: > 100 mg/L
- MIC [9]: > 100 mg/L
- MIC [10]: 100 mg/L (≈ 206 µM)
- MIC [11]: > 100 mg/L
- MIC [12]: 3.12 mg/L (≈ 6.44 µM)
- MIC [13]: > 100 mg/L
- MIC [14]: > 100 mg/L
- MIC [15]: 25 mg/L (≈ 51.6 µM)
- MIC [16]: 3.12 mg/L (≈ 6.44 µM)
- MIC [17]: 3.12 mg/L (≈ 6.44 µM)
- MIC [18]: 1.56 mg/L (≈ 3.22 µM)
- MIC [19]: > 100 mg/L
- MIC [20]: 1.56 mg/L (≈ 3.22 µM)
- MIC [21]: 0.4 mg/L (≈ 0.826 µM)
- MIC [22]: 3.12 mg/L (≈ 6.44 µM)
- MIC [23]: > 100 mg/L
- MIC [24]: 0.4 mg/L (≈ 0.826 µM)
- MIC [25]: > 100 mg/L
- MIC [26]: 100 mg/L (≈ 206 µM)
- MIC [27]: 1.56 mg/L (≈ 3.22 µM)
- MIC [28]: 12.5 mg/L (≈ 25.8 µM)
- MIC [29]: 100 mg/L (≈ 206 µM)
- MIC [30]: > 100 mg/L
- MIC [31]: > 100 mg/L
- MIC [32]: 0.78 mg/L (≈ 1.61 µM)
